Measurements: US9878984B2, “Anti-cancer compounds” (NORTHWESTERN UNIVERSITY, priority 2008, dated 2018)
Entries after “also recorded” stand apart in the source; their conditions may differ.

Experiments:
Type in all cases: cell-based, human
Chk2 = assay: DNA damage response assay (pThr68-Chk2 / total Chk2 western blot); conditions: HeLa cells, [GI99%], 20 hr, normalized to mitoxantrone
Protocol: DNA Damage Response Assay: 250,000 HeLa cells were plated in 35 mm culture dishes and allowed to attach for 8 hr and were then treated with the [GI99%] of each compound for 20 hr (total media volume was […] with 1% DMSO). After treatment cells were lysed in 150 μL detergent buffer containing 1:100 v/v protease inhibitor cocktail (Sigma—St. Louis, Mo.). Lysates were run on denaturing 12% acrylamide gels and transferred to nitrocellulose membranes. The membranes were blocked in blotto, incubated in anti-pThr68-Chk2 antibody (Cell Signaling—Danvers, Mass.) at 1:500 v/v dilution in blotto overnight 4° C., washed, incubated in HRP conjugated anti-rabbit secondary antibody (Jackson) at 1:5,000 v/v dilution in blotto for 1 hr, and then developed. The membranes were then stripped with a reducing buffer, blocked in blotto, incubated in anti-Chk2 antibody (Biolegend—San Diego, Calif.) at 1:500 v/v dilution in blotto overnight at 4° C., washed, incubated in HRP conjugated anti-mouse secondary antibody (Jackson) at 1:5,000 v/v dilution in blotto for 1 hr, and then developed. Membranes were developed with PicoWest Developing Solution (Pierce) and exposed to film. The intensities of bands were quantified as described in the previous section. The data are expressed as the average ratio of pThr68-Chk2 to total Chk2 as normalized to the mitoxantrone control in each of three independent experiments.
Topoisomerase inhibition by most mechanisms should cause activation of DNA damage response pathways because of the production of single and double strand DNA breaks, as is the case with amonafide. […] Therefore, measuring the DNA damage response at a fixed cytotoxic dose ([GI99%]) will determine the extent that DNA damage contributes to the cytotoxicity of these compounds. […] Activation of Chk2 was determined by measuring the ratio of pThr68-Chk2 to total Chk2 in HeLa cells treated with the [GI99%].

HeLa cells [1] = assay: Transwell invasion assay; conditions: [GI99%], matrigel, 20 hr
Protocol: Transwell Invasion Assay: HeLa cells were plated at 250,000 per 35 mm well and allowed to attach for 8 hr. The cells were washed with PBS and then treated for 4 hr with the [GI99%] of each compound (or 1% DMSO—vehicle control) in serum free media to decrease the number of invading cells in the beginning of the experiment due to a preliminary lack of drug exposure. The cells were then trypsinized and counted by trypan blue exclusion with a hemacytometer (Sigma—St. Louis, Mo.). Eight micron pore size control well inserts for 12 well plates (BD Biosciences) were coated with 100 μL 1 mg/mL matrigel (Sigma—St. Louis, Mo.) and allowed to solidify at room temperature for 1 hr. The excess matrigel was aspirated and the inserts were gently washed with PBS. The cells were seeded at a density of 300,000 per insert well in a volume of 500 μL serum free media containing a derivative or vehicle. The inserts were then placed in wells containing 700 μL serum free media with the respective compound. After 20 hr the cells on the top of the membranes were gently removed with a cotton swab, the membranes then were fixed in methanol for 1 min, stained in Gills No. 3 Hematoxylin (Sigma—St. Louis, Mo.) for 5 min, rinsed in tap water, and allowed to dry overnight. The membranes were excised, mounted on slides, and the cells were counted under the 40× objective of a bright field microscope. The data are expressed as the average total number of invading cells counted in 20 fields of each membrane, as standardized to the vehicle control, from six experiments.
Effect of derivatives on the malignant phenotype—invasion assay: If A1-A9 have differential targets, DNA binding specificity, or downstream effects they may differentially alter the malignant behavior of cells. Also, anti-cancer compounds can be efficacious against tumors in other ways besides inhibiting growth and inducing death of cancer cells; they can also alter the behavior of malignant cells. Therefore, the ability of A1-A9 and amonafide to alter the invasive behavior of cancer cells in a transwell (also known as Boyden chamber) invasion assay was evaluated, which determines the ability of cells to migrate through a proteinacious gel. This behavior is considered to be representative of cancer cell invasion through the basement membrane of the primary tumor environment. In this assay, treated cells are seeded on to the top of the matrigel-coated porous membrane, allowed to invade through the proteinacious gel onto the underside of the membrane, and then counted.

HeLa cells [2] = assay: Perinucleolar compartment (PNC) prevalence reduction; conditions: [GI50%] for 72 hr
Protocol: Perinucleolar Compartment (PNC) Reduction: HeLa cells (PNC prevalence ˜85%) were plated 5,000/well in glass bottom 96 well plates and allowed to attach for 8 hr. The cells were then treated with compounds at the respective [GI50%] for 72 hr and [GI99%] for 20 hr for each compound (total media volume was 200 μL/well with 1% DMSO). After treatment cells were immunofluorescently stained as previously described, but with a Texas Red labeled secondary antibody (Jackson) instead of a FITC labeled secondary antibody. PNC prevalence (% of non-apoptotic/non-mitotic cells with 1 or more PNCs) was determined by scoring >200 cells per well with fluorescent microscope (60× objective) and images were acquired with the digital camera and image acquisition software previously mentioned. Scale bar=10 μm. Data are expressed as the average PNC prevalence (% control) of three individual experiments.
The PNC is a unique structural marker that it is only found in malignantly transformed cancer cells, irrespective of tissue origin, and indicates cells that are capable of metastasis. […] Previous studies indicate that the PNC likely conveys a functional metastatic advantage to cancer cells. The PNC prevalence (% of cells with one or more PNC) in human breast cancer positively correlates with the progression of the disease and is always near 100% in distant metastases. […] The PNC prevalence reduction was determined for amonafide and A1-A9 at the respective [GI50%] and [GI99%] doses in HeLa cells, which have a high PNC prevalence of ˜85%.

[3] = test system: topoisomerase II (topo II); assay: Topoisomerase II inhibition assay (topo II-DNA cleavable complexes in treated cells); conditions: HeLa cells, [GI99%], 20 hr, normalized to mitoxantrone
Protocol: In Vitro Topoisomerase Inhibition: HeLa cells were plated at a density of 1.5 million in 35 mm wells and allowed to attach for 20 hr. They were then treated with each compound at the [GI99%] in 10 mL media for 20 hr. In vitro topoisomerase II inhibition was quantified using TopoGEN's Topoisomerase II In vivo Link Kit according to the protocol included with the kit and according to a previously published protocol [24] with slight modifications. In summary, DNA was isolated from sarkosyl lysed cells, layered on a cesium chloride gradient (total volume ˜7 mL), ultra-centrifuged, and then fractionated to 0.5 mL. The fractions were diluted 1:4 v/v in PBS and the fractions containing the genomic DNA were determined by measuring the absorbance at 260 nm for each fraction. The fractions were then loaded into a slot blotting apparatus and pulled through a nitrocellulose membrane by vacuum. The membrane was blocked in 5% w/v milk in 1×TBST (blotto) for 2 hr, incubated in 1:5,000 v/v topoisomerase II (topo II) primary antibody (TopoGEN) in blotto for 1 hr, washed, and incubated in 1:2,000 v/v HRP conjugated anti-rabbit secondary antibody (Jackson—West Grove, Pa.) in blotto for 45 min, washed and developed with SuperSignal West Pico Chemiluminescent Substrate (Pierce—Rockford, Ill.). The data were processed by dividing the intensity of the 2 or 3 most intense topo II immuno-reactive bands by the amount of DNA in the respective fractions. The band intensity was determined by scanning the developed films with a Kodak Image Station 440 CF and measuring the average pixel intensity of an area slightly larger than each band and subtracting the median background pixel intensity of the perimeter of the same area using Kodak MI software. Etoposide (TopoGEN) and mitoxantrone (Sigma—St. Louis, Mo.) are topo II inhibitors used as positive controls. […] Data were standardized to mitoxantrone in each of three independent experiments. […]

HeLa cells [4] = assay: MTS growth inhibition assay, HeLa cells; conditions: concentration used in topo II assay
Protocol: Cell Culture: HeLa (cervical carcinoma), WI-38 (normal human […] fibroblasts), and MDA-MB-231 (breast carcinoma), cells were cultured in DMEM (Invitrogen—Carlsbad, Calif.) and PC-3M (metastatic prostate carcinoma) cells were cultured in RPMI-1640. Peripheral blood mononuclear cells (PBMCs) were voluntarily collected from a healthy laboratory worker by standard sterile phlebotomy techniques and isolated using Vacutainer CPT collection tubes (BD Biosciences—Bedford, Mass.). PBMCs were isolated freshly for each experiment. All DMEM and RPMI-1640 media was supplemented with 10% FBS (Atlanta Biologicals—Lawrenceville, Ga.) and 100 U/mL penicillin and streptomycin (Invitrogen). HUVEC (Human umbilical vein endothelial cells) were cultured in EGM-2 media with supplements provided in the manufacturers BulletKit (Lonza—Walersville, Md.). All cells were maintained at 37° C. and in a 5% CO2 atmosphere.
Growth Inhibition Assays: HeLa, MDA-MB-231, PC-3M, WI-38, and HUVEC cells were plated at 5,000 cells per well in 96 well plates and allowed to attach for 20 hr (8 hr for HeLa). The media was removed and 198 μL of fresh media was added to each well. […] Cell proliferation was measured at t=0 (time at start of treatment) and t=72 hr using MTS AQueous non-radioactive proliferation assay (Promega—Madison, Wis.). […] The absorbance at 490 nm in each well was read with a Spectramax 250 plate reader (Molecular Devices—Sunnyvale, Calif.). […] Data were fit to one site dose response curves in order to obtain specific growth inhibitory concentrations and the relative standard errors of the mean for these concentrations were calculated by the XLfit4 software. Statistical significance (p value) for the selectivity and all subsequent assays was determined with the two tailed homoscedastic Student's t-test. […]

SMILES | invasive behavior (% invading cells vs vehicle) (HeLa cells [1]) | stabilization of topo II-DNA cleavable complexes [3] | [IC99%] (HeLa cells [4]) | further results
CCCNc1ccc2c3c(cccc13)C(=O)N(CCN(C)C)C2=O [A2, 6-propylamino-2-[2-(dimethylamino)ethyl]-1H-benz[de]isoquinoline-1,3(2H)-dione] | – | – | – | DNA damage response (ratio of pThr68-Chk2 to total Chk2) (Chk2): evoked the strongest DNA damage response
C=CCNc1ccc2c3c(cccc13)C(=O)N(CCN(C)C)C2=O [A3, 6-allylamino-2-[2-(dimethylamino)ethyl]-1H-benz[de]isoquinoline-1,3(2H)-dione] | did not significantly alter the invasive behavior of HeLa cells compared to the control | – | – | –
COCCNc1ccc2c3c(cccc13)C(=O)N(CCN(C)C)C2=O [A4, 6-methoxyethylamino-2-[2-(dimethylamino)ethyl]-1H-benz[de]isoquinoline-1,3(2H)-dione] | greatly decreases invasion compared to amonafide and control | – | – | PNC prevalence reduction at [GI50%] (HeLa cells [2]): able effectively reduce the PNC; also recorded: reduces PNC prevalence to the same extent as amonafide; also recorded: can significantly reduce PNC prevalence
CCN(CC)c1ccc2c3c(cccc13)C(=O)N(CCN(C)C)C2=O [A8, 6-diethylamino-2-[2-(dimethylamino)ethyl]-1H-benz[de]isoquinoline-1,3(2H)-dione] | did not significantly alter the invasive behavior of HeLa cells compared to the control | – | – | –
CC[C@@]1(O)C(=O)OCc2c1cc1n(c2=O)Cc2cc3ccccc3nc2-1 [camptothecin] | – | did not cause the stabilization of topo II-DNA cleavable complexes | 0.28 µM | –
COc1cc([C@@H]2c3cc4c(cc3[C@@H](O[C@@H]3O[C@@H]5CO[C@@H](C)O[C@H]5[C@H](O)[C@H]3O)[C@H]3COC(=O)[C@H]23)OCO4)cc(OC)c1O [etoposide] | – | caused formation of abundant drug stabilized topo II-DNA cleavable complexes | 9.62 µM | –
O=C1c2c(O)ccc(O)c2C(=O)c2c(NCCNCCO)ccc(NCCNCCO)c21 [mitoxantrone] | – | caused formation of abundant drug stabilized topo II-DNA cleavable complexes | 1.01 µM | –
